Patent publication US20090029983A1, “NOVEL HETEROCYCLIC COMPOUNDS HAVING ANTI-HBV ACTIVITY” (priority 2005, published 2009)

system: HBV; experiment: HBV screening assay (viral DNA in baculovirus-HBV transduced HepG2 cells); type: cell-based; settings: Hepatitis B virus, HepG2, 72 h, read-out: EC50 (antiviral activity), HBV-transduced HepG2 cells, three days with compound, viral DNA by ELISA
Outline: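 HepG2 cells transduced with baculovirus carrying the HBV genome were grown 3 days at 37 °C with compound in EMEM/10% FBS; viral DNA from lysates captured by solid-phase hybridisation with digoxigenin probes and read by anti-digoxigenin HRP ELISA. EC50 from titration curves; CC50 from non-transduced HepG2 after 3 days by MTS viability.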

Structure (SMILES)	EC50 [µM]
NC(=O)c1sc2nc3c(c(-c4cccs4)c2c1N)CCCC3c1ccccc1 (centres unmarked) [Compound 66, 3-Amino-8-phenyl-4-thiophen-2-yl-5,6,7,8-tetrahydro-thieno[2,3-b]quinoline-2-carboxylic acid amide]	1 to 10
COc1ccccc1-c1nc(CN2Cc3nc4sc(C(N)=O)c(N)c4c(-c4cccs4)c3C2)no1 [Compound 5, 3-Amino-6-[5-(2-methoxy-phenyl)-[1,2,4]oxadiazol-3-ylmethyl]-4-thiophen-2-yl-6,7-dihydro-5H-1-thia-6,8-diaza-s-indacene-2-carboxylic acid amide]	1 to 10
NC(=O)c1sc2nc3c(c(-c4cccs4)c2c1N)CN(C(=S)NCCN1CCOCC1)C3 [Compound 93, 3-Amino-6-(2-morpholin-4-yl-ethylthiocarbamoyl)-4-thiophen-2-yl-6,7-dihydro-5H-1-thia-6,8-diaza-s-indacene-2-c arboxylic acid amide]	> 10
COc1cc(CN2Cc3nc4sc(C(N)=O)c(N)c4c(-c4cccs4)c3C2)cc(OC)c1 [Compound 24, 3-Amino-6-(3,5-dimethoxy-benzyl)-4-thiophen-2-yl-6,7-dihydro-5H-1-thia-6,8-diaza-s-indacene-2-carboxylic acid amide]	> 10
NC(=O)c1sc2nc3c(c(-c4cccs4)c2c1N)CN(C(=O)Nc1ccc(N2CCOCC2)nc1)C3 [Compound 102, 3-Amino-4-thiophen-2-yl-5,7-dihydro-1-thia-6,8-diaza-s-indacene-2,6-dicarboxylicacid 2-amide 6-[(6-morpholin-4-yl-pyridin-3-yl)-amide]]	> 10
NC(=O)c1sc2nc3c(c(-c4cccs4)c2c1N)CN(C(=O)CCl)C3 [Compound 104, 3-Amino-6-(2-chloro-acetyl)-4-thiophen-2-yl-6,7-dihydro-5H-1-thia-6,8-diaza-s-indacene-2-carboxylic acid amide]	1 to 10
CCOC1CCc2c1nc1sc(C(N)=O)c(N)c1c2-c1cccs1 (centres unmarked) [Compound 35, 3-Amino-7-ethoxy-4-thiophen-2-yl-6,7-dihydro-5H-cyclopenta[b]thieno[3,2-e]pyridine-2-carboxylic acid amide]	< 1

system: HBV; experiment: not given; settings: HBV treatment, background statement; cited from earlier work

Structure (SMILES)	sustained viral response rate
CC(C)(C)C(=O)OCOP(=O)(COCCn1cnc2c(N)ncnc21)OCOC(=O)C(C)(C)C [adefovir dipivoxil, 9-(2-((-bis((pivaloyloxy)methoxy)phosphinyl)methoxy)ethyl)adenine]	below 20%
